Converted amounts (≈) assume the structure as drawn. The source made the active and inactive calls. No cut-off for these calls is given here.
Columns and labels:
[1] = biological target: T1, Quinolone resistance protein NorA (Staphylococcus aureus) (UniProt P0A0J7); test: Inhibition of NorA in Staphylococcus aureus 1199B assessed as potentiation of ethidium bromide-induced antibacterial activity by measuring fractional inhibitory concentration
T1 sequence (whole entry): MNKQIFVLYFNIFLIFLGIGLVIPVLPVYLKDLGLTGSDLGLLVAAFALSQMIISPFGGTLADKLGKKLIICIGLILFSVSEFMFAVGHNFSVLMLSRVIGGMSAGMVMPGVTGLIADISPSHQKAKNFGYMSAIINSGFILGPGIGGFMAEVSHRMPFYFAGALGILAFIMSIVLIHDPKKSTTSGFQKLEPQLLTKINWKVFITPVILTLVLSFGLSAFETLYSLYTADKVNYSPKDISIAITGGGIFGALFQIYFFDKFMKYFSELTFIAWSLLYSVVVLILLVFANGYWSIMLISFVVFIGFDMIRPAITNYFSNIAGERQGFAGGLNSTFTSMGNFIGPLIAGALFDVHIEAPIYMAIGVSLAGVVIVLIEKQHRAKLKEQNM

[2] = biological target: T1, Quinolone resistance protein NorA (Staphylococcus aureus); test: Inhibition of NorA in Staphylococcus aureus 1199B assessed as potentiation of ethidium bromide-induced antibacterial activity by measuring ethidium bromide MIC at sub MIC
[3] = biological target: T1, Quinolone resistance protein NorA (Staphylococcus aureus); test: Inhibition of NorA in Staphylococcus aureus 1199B assessed as potentiation of norfloxacin-induced antibacterial activity by measuring fractional inhibitory concentration
[4] = biological target: T1, Quinolone resistance protein NorA (Staphylococcus aureus); test: Inhibition of NorA in Staphylococcus aureus 1199B assessed as potentiation of norfloxacin-induced antibacterial activity by measuring Norfloxacin MIC at sub MIC relative to norfloxacin MIC alone
[5] = Cytotoxicity against kidney epithelial cells (unknown origin) assessed as cell viability at 50 ug/mL measured after 24 hrs by alamar blue assay relative to control; format: toxicity, cell-based, Fetal kidney cell; conditions: at 50 µg/mL, read-out: Activity
[6] = biological target: T1, Quinolone resistance protein NorA (Staphylococcus aureus); test: Inhibition of NorA in Staphylococcus aureus 1199B assessed as accumulation of ethidium bromide at 3.9 ug/ml by measuring fluorescence intensity measured at 5 mins interval for 40 mins by fluorescence spectrophotometry; conditions: dose 3.9 µg/ml
[7] = biological target: T1, Quinolone resistance protein NorA (Staphylococcus aureus); test: Inhibition of NorA in Staphylococcus aureus 1199B assessed as potentiation of 3.1 ug/mL norfloxacin-induced bactericidal activity by measuring log reduction in bacterial count at 7.8 ug/mL measured after 24 hrs by time-kill kinetics assay; conditions: dose 7.8 µg/ml
[8] = biological target: T1, Quinolone resistance protein NorA (Staphylococcus aureus); test: Inhibition of NorA in Staphylococcus aureus 1199B assessed as potentiation of ethidium bromide-induced bactericidal activity at 7.8 ug/ml measured after 24 hrs by time-kill kinetics assay; conditions: dose 7.8 µg/ml
[9] = biological target: T1, Quinolone resistance protein NorA (Staphylococcus aureus); test: Inhibition of NorA in Staphylococcus aureus 1199B assessed as accumulation of norfloxacin at 3.9 ug/ml measured at 5 mins interval for 40 mins by fluorescence spectrophotometry; conditions: dose 3.9 µg/ml
[10] = biological target: T1, Quinolone resistance protein NorA (Staphylococcus aureus); test: Inhibition of NorA in Staphylococcus aureus 1199B assessed as potentiation of norfloxacin-induced antibacterial activity by measuring Norfloxacin MIC at sub MIC
[11] = tested on: Staphylococcus aureus; test: Antibacterial activity against Staphylococcus aureus 1199B measured after 24 hrs by Muller Hinton broth based MTT assay; format: functional
[12] = biological target: T1, Quinolone resistance protein NorA (Staphylococcus aureus); test: Inhibition of NorA in Staphylococcus aureus 1199B assessed as potentiation of ethidium bromide-induced antibacterial activity by measuring ethidium bromide MIC at sub MIC relative to ethidium bromide MIC alone
[13] = tested on: Staphylococcus aureus; test: Antibacterial activity against Staphylococcus aureus K1758 measured after 24 hrs by Muller Hinton broth based MTT assay; format: functional
[14] = tested on: Staphylococcus aureus; test: Antibacterial activity against Staphylococcus aureus 1199 measured after 24 hrs by Muller Hinton broth based MTT assay; format: functional
[15] = biological target: T1, Quinolone resistance protein NorA (Staphylococcus aureus); test: Inhibition of NorA in Staphylococcus aureus 1199B infected human THP-1 cells assessed as potentiation of norfloxacin-induced bactericidal activity by measuring reduction in bacterial count at 1.7 to 3.4 ug/ml measured after 24 hrs relative to control; format: cell-based; conditions: dose 1.7-3.4 µg/ml
[16] = tested on: Staphylococcus aureus; test: Up regulation of NorA gene expression in Staphylococcus aureus 1199B at 3.9 ug/ml measured after 2 hrs by qRT-PCR analysis relative to control; format: functional; conditions: dose 3.9 µg/ml
[17] = biological target: T1, Quinolone resistance protein NorA (Staphylococcus aureus); test: Inhibition of NorA in Staphylococcus aureus 1199B infected human THP-1 cells assessed as potentiation of 3.1 ug/ml norfloxacin-induced bactericidal activity by measuring log reduction in bacterial count at 15.6 ug/ml measured after 24 hrs relative to control; format: cell-based; conditions: dose 15.6 µg/ml
[18] = biological target: T1, Quinolone resistance protein NorA (Staphylococcus aureus); test: Inhibition of NorA in Staphylococcus aureus 1199B infected human THP-1 cells assessed as potentiation of norfloxacin-induced bactericidal activity by measuring reduction in intracellular invasion at modulatory concentration measured after 24 hrs; format: cell-based
[19] = biological target: T1, Quinolone resistance protein NorA (Staphylococcus aureus); test: Inhibition of NorA in Staphylococcus aureus 1199B infected human THP-1 cells assessed as potentiation of norfloxacin-induced bactericidal activity by measuring reduction in bacterial count at modulatory concentration measured after 24 hrs relative to control; format: cell-based
[20] = biological target: T1, Quinolone resistance protein NorA (Staphylococcus aureus); test: Inhibition of NorA in Staphylococcus aureus 1199B infected human THP-1 cells assessed as potentiation of norfloxacin-induced bactericidal activity by measuring reduction in intracellular proliferation at modulatory concentration measured after 24 hrs; format: cell-based
[21] = biological target: T1, Quinolone resistance protein NorA (Staphylococcus aureus); test: Inhibition of NorA in Staphylococcus aureus 1199B infected human THP-1 cells assessed as potentiation of norfloxacin-induced bactericidal activity by measuring reduction in bacterial count at modulatory concentration measured after 24 hrs; format: cell-based
[22] = biological target: T1, Quinolone resistance protein NorA (Staphylococcus aureus); test: Inhibition of NorA in Staphylococcus aureus 1199B assessed as potentiation of norfloxacin-induced morphological changes by measuring appearance of plicated and with cracked surface at sub MIC by field emission scanning electron microscopy
[23] = tested on: Staphylococcus aureus; test: Up regulation of NorA gene expression in Staphylococcus aureus 1199B at 3.9 ug/ml measured after 2 hrs in presence of norfloxacin by qRT-PCR analysis relative to control; format: functional; conditions: dose 3.9 µg/ml
[24] = biological target: T1, Quinolone resistance protein NorA (Staphylococcus aureus); test: Inhibition of NorA in Staphylococcus aureus 1199B infected human THP-1 cells assessed as potentiation of norfloxacin-induced bactericidal activity by measuring log reduction in bacterial count measured after 24 hrs relative to vancomycin; format: cell-based
[25] = biological target: T1, Quinolone resistance protein NorA (Staphylococcus aureus); test: Inhibition of NorA in Staphylococcus aureus 1199B assessed as accumulation of norfloxacin at 3.9 ug/ml by measuring fluorescence intensity measured at 5 mins interval for 40 mins by fluorescence spectrophotometry; conditions: dose 3.9 µg/ml
[26] = biological target: T1, Quinolone resistance protein NorA (Staphylococcus aureus); test: Inhibition of NorA in Staphylococcus aureus 1199B assessed as potentiation of 3.1 ug/mL norfloxacin-induced bactericidal activity by measuring log reduction in bacterial count at 7.8 ug/mL measured after 8 hrs by time-kill kinetics assay; conditions: dose 7.8 µg/ml
[27] = tested on: Staphylococcus aureus; test: Down regulation of NorA gene expression in Staphylococcus aureus 1199B at 3.9 ug/ml measured after 2 hrs by qRT-PCR analysis; format: functional; conditions: dose 3.9 µg/ml
[28] = biological target: T1, Quinolone resistance protein NorA (Staphylococcus aureus); test: Inhibition of NorA in Staphylococcus aureus 1199B assessed as potentiation of 3.1 ug/mL norfloxacin-induced bactericidal activity by measuring log reduction in bacterial count at 7.8 ug/mL measured after 4 hrs by time-kill kinetics assay; conditions: dose 7.8 µg/ml
[29] = tested on: Staphylococcus aureus; test: Down regulation of NorA gene expression in Staphylococcus aureus 1199B at 1.55 ug/ml measured after 2 hrs by qRT-PCR analysis relative to control; format: functional; conditions: dose 1.55 µg/ml
[30] = tested on: Staphylococcus aureus; test: Down regulation of NorA gene expression in Staphylococcus aureus 1199B at 1.55 ug/ml measured after 2 hrs in presence of norfloxacin by qRT-PCR analysis relative to norfloxacin; format: functional; conditions: dose 1.55 µg/ml
[31] = biological target: T1, Quinolone resistance protein NorA (Staphylococcus aureus); test: Inhibition of NorA in Staphylococcus aureus 1199B assessed as potentiation of 3.1 ug/mL ethidium bromide-induced bactericidal activity by measuring log reduction in bacterial count at sub MIC measured within 4 hrs by time-kill kinetics assay
[32] = biological target: T1, Quinolone resistance protein NorA (Staphylococcus aureus); test: Inhibition of NorA in Staphylococcus aureus 1199B assessed as potentiation of norfloxacin-induced morphological changes by measuring appearance of lysed cell at sub MIC by field emission scanning electron microscopy

| Structure (SMILES) | fractional inhibitory concentration index (FICI) [1] | MIC [2] [µg/mL] | fractional inhibitory concentration index (FICI) [3] | fold change (FC) [4] | viability at 24 h, 50 ug/mL [5] [%] | Flu intensity [6] | inhibition [8] | MIC [10] [µg/mL] | MIC [11] [µg/mL] | fold change (FC) [12] | MIC [13] [µg/mL] | MIC [14] [µg/mL] | FC [17] | inhibition [18] | fold change (FC) [19] | inhibition [20] | Activity [21] [log10CFU/ml] | FC [24] | Flu intensity [25] | also measured |
| --- | --- | --- | --- | --- | --- | --- | --- | --- | --- | --- | --- | --- | --- | --- | --- | --- | --- | --- | --- | --- |
| COc1ccc(C2N=C(c3ccccc3)c3ccccc3N2)cc1OC (stereo not given) | 0.141 | 6.2 | 0.078 | 16 | 83.7 | 86 | Active | 3.1 | 500 (≈ 1450 µM) | 8 | 250 (≈ 726 µM) | 125 (≈ 363 µM) |  |  |  |  |  |  |  | Activity [7]: > 3 log10CFU/ml; inhibition [9]: Active |
| CN[C@H](CC(C)C)C(=O)N[C@H]1C(=O)N[C@@H](CC(N)=O)C(=O)N[C@H]2C(=O)N[C@H]3C(=O)N[C@H](C(=O)N[C@H](C(=O)O)c4cc(O)cc(O)c4-c4cc3ccc4O)[C@H](O)c3ccc(c(Cl)c3)Oc3cc2cc(c3O[C@@H]2O[C@H](CO)[C@@H](O)[C@H](O)[C@H]2O[C@H]2C[C@](C)(N)[C@H](O)[C@H](C)O2)Oc2ccc(cc2Cl)[C@H]1O [VANCOMYCIN] |  |  |  |  |  |  |  |  | 1.7 (≈ 1.17 µM) |  | 0.1 (≈ 0.069 µM) | 0.42 (≈ 0.29 µM) |  |  |  |  |  |  |  | fold change (FC) [15]: 2 |
| Brc1ccc(C2=NC(c3ccc(Br)cc3)Nc3ccccc32)cc1 (stereo not given) | 0.266 | 12.5 | 0.078 | 16 | 93.6 | 127 | Active | 3.1 | 500 (≈ 1130 µM) | 4 | 15.6 (≈ 35.3 µM) | 125 (≈ 283 µM) | 5 | Active | 4 | Active | 4.13 | 3 | 13000 | fold change (FC) [16]: 3; inhibition [22]: Active; fold change (FC) [23]: 3; Activity [26]: > 3 log10CFU/ml |
| Fc1ccccc1C1=NC(c2ccco2)Nc2ccc(Cl)cc21 (stereo not given) | 0.125 | 3.1 | 0.078 | 16 | 95.3 | 248 |  | 3.1 | 500 (≈ 1530 µM) | 16 | 3.9 (≈ 11.9 µM) | 125 (≈ 383 µM) | 5 | Active | 4 | Active | 4.68 | 3 | 28700 | Activity [27]: Active; Activity [28]: > 3 log10CFU/ml; fold change (FC) [29]: 8; fold change (FC) [30]: 9; Activity [31]: > 3 log10CFU/ml; inhibition [32]: Active |
